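How tested: cells in 96-well plates exposed to compound for 48 hours at five concentrations. TGI: total growth inhibition.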 Where a SMILES comes first, the peptide text is derived from it. [ ]: non-standard residue; d: D form. The star is where a group is joined. Bn2Val = CC(C)[C@@H](C(=O)*)N(Cc1ccccc1)Cc1ccccc1; NH(4-Cl-benzyl) = Clc1ccc(CN*)cc1; NMeV = CN[C@H](C(=O)O)C(C)C; dNMeA = CN[C@H](C)C(=O)O
Key:
Assay in all cases: NCI tumour cell line growth inhibition, 48 h
786-0 renal = system: 786-0 renal
A498 renal = system: A498 renal
A549 NSCLC = system: A549 NSCLC
BT-549 breast = system: BT-549 breast
CCRF-CEM leukemia = system: CCRF-CEM leukemia
COLO 205 colon = system: COLO 205 colon
DU-145 prostate = system: DU-145 prostate
EKVX NSCLC = system: EKVX NSCLC
HCC-2998 colon = system: HCC-2998 colon
HCT-116 colon = system: HCT-116 colon
HCT-15 colon = system: HCT-15 colon
HOP-92 NSCLC = system: HOP-92 NSCLC
HT29 colon = system: HT29 colon
IGROV1 ovarian = system: IGROV1 ovarian
KM12 colon = system: KM12 colon
LOX IMVI melanoma = system: LOX IMVI melanoma
M14 melanoma = system: M14 melanoma
MDA-MB-231 breast = system: MDA-MB-231 breast
MDA-MB-435 = system: MDA-MB-435
MDA-N = system: MDA-N
MOLT-4 leukemia = system: MOLT-4 leukemia
NCI-H226 lung = system: NCI-H226 lung
NCI-H23 lung = system: NCI-H23 lung
NCI-H460 lung = system: NCI-H460 lung
NCI/ADR-RES ovarian = system: NCI/ADR-RES ovarian
OVCAR-3 ovarian = system: OVCAR-3 ovarian
OVCAR-5 ovarian = system: OVCAR-5 ovarian
OVCAR-8 ovarian = system: OVCAR-8 ovarian
PC-3 prostate = system: PC-3 prostate
RPMI-8226 leukemia = system: RPMI-8226 leukemia
SF-295 CNS = system: SF-295 CNS
SF-539 CNS = system: SF-539 CNS
SK-MEL-2 melanoma = system: SK-MEL-2 melanoma
SK-MEL-28 melanoma = system: SK-MEL-28 melanoma
SK-MEL-5 melanoma = system: SK-MEL-5 melanoma
SN12C renal = system: SN12C renal
SNB-19 CNS = system: SNB-19 CNS
SNB-75 CNS = system: SNB-75 CNS
SR leukemia = system: SR leukemia
SW-620 colon = system: SW-620 colon
T-47D breast = system: T-47D breast
U251 CNS = system: U251 CNS
UACC-257 melanoma = system: UACC-257 melanoma
UACC-62 melanoma = system: UACC-62 melanoma
UO-31 renal = system: UO-31 renal
ACHN renal = system: ACHN renal
CAKI-1 renal = system: CAKI-1 renal
HL-60(TB) leukemia = system: HL-60(TB) leukemia
HOP-62 NSCLC = system: HOP-62 NSCLC
HS 578T breast = system: HS 578T breast
K-562 leukemia = system: K-562 leukemia
MALME-3M melanoma = system: MALME-3M melanoma
MCF7 breast = system: MCF7 breast
OVCAR-4 ovarian = system: OVCAR-4 ovarian
RXF 393 renal = system: RXF 393 renal
SK-OV-3 ovarian = system: SK-OV-3 ovarian
TK-10 renal = system: TK-10 renal
NCI-H522 lung = system: NCI-H522 lung
SF-268 CNS = system: SF-268 CNS

C=CCC1C(O[Si](C)(C)C(C)(C)C)C(CO[Si](C)(C)C(C)(C)C)OC1n1ccc(=O)[nH]c1=O (stereo unspecified)
TGI (786-0 renal): 2.44 µM
TGI (A498 renal): 3.68 µM
TGI (A549 NSCLC): 2.91 µM
TGI (BT-549 breast): 3.42 µM
TGI (CCRF-CEM leukemia): 2.86 µM
TGI (COLO 205 colon): 3.13 µM
TGI (DU-145 prostate): 4.54 µM
TGI (EKVX NSCLC): 2.79 µM
TGI (HCC-2998 colon): 3.27 µM
TGI (HCT-116 colon): 2.5 µM
TGI (HCT-15 colon): 2.64 µM
TGI (HOP-92 NSCLC): 2.5 µM
TGI (HT29 colon): 2.8 µM
TGI (IGROV1 ovarian): 3.02 µM
TGI (KM12 colon): > 100 µM
TGI (LOX IMVI melanoma): 2.25 µM
TGI (M14 melanoma): 2.96 µM
TGI (MDA-MB-231 breast): 4.52 µM
TGI (MDA-MB-435): 4.33 µM
TGI (MDA-N): 2.89 µM
TGI (MOLT-4 leukemia): 2.84 µM
TGI (NCI-H226 lung): 3.02 µM
TGI (NCI-H23 lung): 2.8 µM
TGI (NCI-H460 lung): 2.93 µM
TGI (NCI/ADR-RES ovarian): 3.48 µM
TGI (OVCAR-3 ovarian): 3.34 µM
TGI (OVCAR-5 ovarian): 2.57 µM
TGI (OVCAR-8 ovarian): 3.41 µM
TGI (PC-3 prostate): 3.72 µM
TGI (RPMI-8226 leukemia): 4.89 µM
TGI (SF-295 CNS): 3.59 µM
TGI (SF-539 CNS): 3.03 µM
TGI (SK-MEL-2 melanoma): 4.65 µM
TGI (SK-MEL-28 melanoma): 3.05 µM
TGI (SK-MEL-5 melanoma): 2.91 µM
TGI (SN12C renal): 2.8 µM
TGI (SNB-19 CNS): 3.06 µM
TGI (SNB-75 CNS): 2.79 µM
TGI (SR leukemia): 18.4 µM
TGI (SW-620 colon): 2.84 µM
TGI (T-47D breast): 4.37 µM
TGI (U251 CNS): 5.66 µM
TGI (UACC-257 melanoma): 3.37 µM
TGI (UACC-62 melanoma): 3.46 µM
TGI (UO-31 renal): 2.83 µM

CC(C)(C)OC(=O)NCC(CNC(=O)OC(C)(C)C)c1nc(C(N)=O)cs1
TGI (786-0 renal): > 100 µM
TGI (A498 renal): > 100 µM
TGI (A549 NSCLC): > 100 µM
TGI (ACHN renal): > 100 µM
TGI (BT-549 breast): > 100 µM
TGI (CAKI-1 renal): > 100 µM
TGI (CCRF-CEM leukemia): > 100 µM
TGI (COLO 205 colon): > 100 µM
TGI (EKVX NSCLC): > 100 µM
TGI (HCC-2998 colon): > 100 µM
TGI (HCT-116 colon): > 100 µM
TGI (HCT-15 colon): > 100 µM
TGI (HL-60(TB) leukemia): > 100 µM
TGI (HOP-62 NSCLC): > 100 µM
TGI (HOP-92 NSCLC): > 100 µM
TGI (HS 578T breast): > 100 µM
TGI (HT29 colon): > 100 µM
TGI (IGROV1 ovarian): > 100 µM
TGI (K-562 leukemia): > 100 µM
TGI (KM12 colon): > 100 µM
TGI (LOX IMVI melanoma): > 100 µM
TGI (M14 melanoma): > 100 µM
TGI (MALME-3M melanoma): > 100 µM
TGI (MCF7 breast): > 100 µM
TGI (MDA-MB-231 breast): > 100 µM
TGI (MDA-MB-435): > 100 µM
TGI (MDA-N): > 100 µM
TGI (MOLT-4 leukemia): > 100 µM
TGI (NCI-H226 lung): > 100 µM
TGI (NCI-H23 lung): > 100 µM
TGI (NCI-H460 lung): > 100 µM
TGI (NCI/ADR-RES ovarian): > 100 µM
TGI (OVCAR-3 ovarian): > 100 µM
TGI (OVCAR-4 ovarian): > 100 µM
TGI (OVCAR-5 ovarian): > 100 µM
TGI (OVCAR-8 ovarian): > 100 µM
TGI (PC-3 prostate): > 100 µM
TGI (RXF 393 renal): > 100 µM
TGI (SF-295 CNS): > 100 µM
TGI (SF-539 CNS): > 100 µM
TGI (SK-MEL-2 melanoma): > 100 µM
TGI (SK-MEL-28 melanoma): > 100 µM
TGI (SK-MEL-5 melanoma): > 100 µM
TGI (SK-OV-3 ovarian): > 100 µM
TGI (SN12C renal): > 100 µM
TGI (SNB-19 CNS): > 100 µM
TGI (SNB-75 CNS): > 100 µM
TGI (SR leukemia): > 100 µM
TGI (SW-620 colon): > 100 µM
TGI (TK-10 renal): > 100 µM
TGI (U251 CNS): > 100 µM
TGI (UACC-257 melanoma): > 100 µM
TGI (UACC-62 melanoma): > 100 µM
TGI (UO-31 renal): > 100 µM

CC(C)[C@H](NC(=O)[C@H](C(C)C)N(Cc1ccccc1)Cc1ccccc1)C(=O)N(C)[C@H](C(=O)N1CCC[C@H]1C(=O)N(C)[C@H](C)C(=O)NCc1ccc(Cl)cc1)C(C)C (Bn2Val-V[NMeV]P[dNMeA]-{NH(4-Cl-benzyl)})
TGI (786-0 renal): 28.7 µM
TGI (A549 NSCLC): > 100 µM
TGI (ACHN renal): 10.1 µM
TGI (BT-549 breast): 13.5 µM
TGI (CAKI-1 renal): > 100 µM
TGI (CCRF-CEM leukemia): 7.43 µM
TGI (DU-145 prostate): > 100 µM
TGI (EKVX NSCLC): 34 µM
TGI (HCT-116 colon): 11.7 µM
TGI (HCT-15 colon): 41.2 µM
TGI (HL-60(TB) leukemia): 3.97 µM
TGI (HOP-62 NSCLC): 29.5 µM
TGI (HOP-92 NSCLC): 17.9 µM
TGI (HS 578T breast): 4.04 µM
TGI (HT29 colon): 3.54 µM
TGI (IGROV1 ovarian): 8.3 µM
TGI (K-562 leukemia): > 100 µM
TGI (KM12 colon): > 100 µM
TGI (LOX IMVI melanoma): 3.63 µM
TGI (M14 melanoma): 30.1 µM
TGI (MALME-3M melanoma): > 29.7 µM
TGI (MDA-MB-231 breast): 11.8 µM
TGI (MDA-MB-435): 79.8 µM
TGI (MDA-N): 30.9 µM
TGI (MOLT-4 leukemia): > 100 µM
TGI (NCI-H226 lung): 9.66 µM
TGI (NCI-H23 lung): 28.6 µM
TGI (NCI-H460 lung): > 100 µM
TGI (NCI-H522 lung): 4.97 µM
TGI (NCI/ADR-RES ovarian): 95.7 µM
TGI (OVCAR-3 ovarian): 9.67 µM
TGI (OVCAR-4 ovarian): > 100 µM
TGI (OVCAR-5 ovarian): > 100 µM
TGI (OVCAR-8 ovarian): > 100 µM
TGI (PC-3 prostate): > 100 µM
TGI (RPMI-8226 leukemia): > 100 µM
TGI (RXF 393 renal): 6.27 µM
TGI (SF-268 CNS): 11.2 µM
TGI (SF-295 CNS): 11.1 µM
TGI (SF-539 CNS): 62.3 µM
TGI (SK-MEL-2 melanoma): 3.62 µM
TGI (SK-MEL-28 melanoma): 36.3 µM
TGI (SK-MEL-5 melanoma): 13.4 µM
TGI (SK-OV-3 ovarian): > 100 µM
TGI (SN12C renal): 6.35 µM
TGI (SNB-19 CNS): > 100 µM
TGI (SNB-75 CNS): 29.6 µM
TGI (SR leukemia): > 100 µM
TGI (SW-620 colon): > 100 µM
TGI (T-47D breast): > 100 µM
TGI (TK-10 renal): > 100 µM
TGI (U251 CNS): 20.1 µM
TGI (UACC-257 melanoma): > 100 µM
TGI (UACC-62 melanoma): 13.8 µM

C=CCP(=O)(CC=C)C(Cl)Cl
TGI (A549 NSCLC): > 100 µM
TGI (ACHN renal): > 100 µM
TGI (CAKI-1 renal): > 100 µM
TGI (CCRF-CEM leukemia): > 100 µM
TGI (COLO 205 colon): > 100 µM
TGI (DU-145 prostate): > 100 µM
TGI (HCC-2998 colon): > 100 µM
TGI (HCT-116 colon): > 100 µM
TGI (HCT-15 colon): > 100 µM
TGI (HL-60(TB) leukemia): > 100 µM
TGI (HOP-62 NSCLC): > 100 µM
TGI (HOP-92 NSCLC): > 100 µM
TGI (HS 578T breast): > 100 µM
TGI (HT29 colon): > 100 µM
TGI (IGROV1 ovarian): > 100 µM
TGI (K-562 leukemia): > 100 µM
TGI (LOX IMVI melanoma): > 100 µM
TGI (M14 melanoma): > 100 µM
TGI (MCF7 breast): > 100 µM
TGI (MDA-MB-231 breast): > 100 µM
TGI (MDA-N): > 100 µM
TGI (MOLT-4 leukemia): > 100 µM
TGI (NCI-H226 lung): > 100 µM
TGI (NCI-H23 lung): > 100 µM
TGI (NCI-H460 lung): > 100 µM
TGI (NCI-H522 lung): > 100 µM
TGI (NCI/ADR-RES ovarian): > 100 µM
TGI (OVCAR-3 ovarian): > 100 µM
TGI (OVCAR-4 ovarian): > 100 µM
TGI (OVCAR-5 ovarian): > 100 µM
TGI (OVCAR-8 ovarian): > 100 µM
TGI (PC-3 prostate): > 100 µM
TGI (RPMI-8226 leukemia): > 100 µM
TGI (SF-295 CNS): > 100 µM
TGI (SK-MEL-2 melanoma): > 100 µM
TGI (SK-MEL-28 melanoma): > 100 µM
TGI (SK-MEL-5 melanoma): > 100 µM
TGI (SK-OV-3 ovarian): > 100 µM
TGI (SN12C renal): > 100 µM
TGI (SNB-19 CNS): > 100 µM
TGI (SNB-75 CNS): > 100 µM
TGI (SR leukemia): > 100 µM
TGI (SW-620 colon): > 100 µM
TGI (T-47D breast): > 100 µM
TGI (TK-10 renal): > 100 µM
TGI (U251 CNS): > 100 µM
TGI (UACC-257 melanoma): > 100 µM
TGI (UO-31 renal): > 100 µM
